Measurements reported in PubChem BioAssay (NCI).
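Cultured in 96-well plates, cells were exposed to test compound for 48 hours across five concentrations. GI50: concentration for 50% inhibition of growth. TGI is the concentration that stops growth completely.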

Columns and labels:
Experiment in all cases: NCI anticancer screen, dose series, 48 h
CCRF-CEM leukemia = tested on: CCRF-CEM leukemia
EKVX NSCLC = tested on: EKVX NSCLC
IGROV1 ovarian = tested on: IGROV1 ovarian
NCI-H522 lung = tested on: NCI-H522 lung
OVCAR-8 ovarian = tested on: OVCAR-8 ovarian
RPMI-8226 leukemia = tested on: RPMI-8226 leukemia
SF-295 CNS = tested on: SF-295 CNS
SK-MEL-2 melanoma = tested on: SK-MEL-2 melanoma
SNB-75 CNS = tested on: SNB-75 CNS
HCT-116 colon = tested on: HCT-116 colon

SMILES | TGI (CCRF-CEM leukemia) | TGI (EKVX NSCLC) | TGI (IGROV1 ovarian) | TGI (NCI-H522 lung) | TGI (OVCAR-8 ovarian) | TGI (RPMI-8226 leukemia) | TGI (SF-295 CNS) | TGI (SK-MEL-2 melanoma) | TGI (SNB-75 CNS) | GI50 (CCRF-CEM leukemia) | GI50 (EKVX NSCLC) | GI50 (HCT-116 colon) | TGI (HCT-116 colon) | GI50 (IGROV1 ovarian) | GI50 (NCI-H522 lung) | GI50 (RPMI-8226 leukemia) | GI50 (SF-295 CNS) | GI50 (SK-MEL-2 melanoma) | GI50 (SNB-75 CNS) | GI50 (OVCAR-8 ovarian)
CON1C(=O)C2(CCCCC2)C(=O)C12C=CC(C)CC2 (stereo not drawn) | > 100 µM | > 100 µM | > 100 µM | > 100 µM | > 100 µM | > 100 µM | > 100 µM | > 100 µM | > 100 µM |  |  |  |  |  |  |  |  |  |  | 
Cc1cccc2c(=O)c3c(sc12)c(NCCCN)nc1ccccc13 | 3.13 µM | 3.14 µM | 2.63 µM | 3.34 µM |  | 3.88 µM | 3.29 µM | 3.65 µM | 2.31 µM | 1.32 µM | 1.58 µM | 1.48 µM | 2.91 µM | 1.18 µM | 1.57 µM | 1.77 µM | 1.75 µM | 1.85 µM | 1.02 µM | 
NCCCNCc1c2ccccc2c(CNCCCN)c2ccccc12 | 46.6 µM | 43.5 µM | > 100 µM | 21 µM | 33.9 µM |  | 56.2 µM | 28.2 µM | 44 µM |  |  |  | 48.2 µM |  |  |  |  |  |  | 
Oc1ccc(O)c(-n2cccn2)c1 | 57 µM | > 100 µM | > 100 µM | 34.7 µM | > 100 µM | > 100 µM | > 100 µM | 95.7 µM | > 100 µM |  |  |  |  |  |  |  |  |  |  | 
COc1nc(NC2OC(COC(C)=O)C(OC(C)=O)C(OC(C)=O)C2OC(C)=O)c(N=C(C)C(C)=O)c(=O)n1C (stereo not drawn) | > 100 µM | > 100 µM | > 100 µM |  | > 100 µM | > 100 µM | > 100 µM | > 100 µM | > 100 µM |  |  |  | > 100 µM |  |  |  |  |  |  | 
CSc1nc2c(nc(N)n2C2OC(CO)C(O)C(O)C2O)c(=O)[nH]1 (stereo not drawn) | > 100 µM | > 100 µM | > 100 µM | > 100 µM | > 100 µM |  | > 100 µM |  | > 100 µM |  |  |  | > 100 µM |  |  |  |  |  |  | 
COC(=O)CCCCCOS(=O)(=O)c1ccc(C)cc1 | > 100 µM | > 100 µM | > 100 µM | > 100 µM | > 100 µM |  | > 100 µM | > 100 µM | > 100 µM |  |  |  | > 100 µM |  |  |  |  |  |  | 
OC(c1cc2ccccc2[nH]1)C(O)(c1cc2ccccc2[nH]1)c1cc2ccccc2[nH]1 (stereo not drawn) | > 245 µM | 60.9 µM | 47.9 µM | 37.5 µM | 75 µM | > 245 µM | 31.3 µM | 50 µM |  |  |  |  | 27.3 µM |  |  |  |  |  |  | 
C/C(=N\NC(=O)c1ccccc1O)c1c(O)cc(C)oc1=O |  | 88.6 µM | > 100 µM | > 100 µM | > 100 µM | > 100 µM | > 100 µM | > 100 µM | > 100 µM |  |  |  | > 100 µM |  |  |  |  |  |  | 
Cc1ccc(S(=O)(=O)NC(Cc2ccccc2)C(=O)CCl)cc1 (stereo not drawn) | > 100 µM | 34.4 µM | 28.8 µM | 21.4 µM | 29.7 µM |  | 36.6 µM | 26 µM | 28 µM |  |  |  | 23.8 µM |  |  |  |  |  |  | 
C=C(C)[C@@H]1C/C=C(/COC(C)=O)CC[C@H]2O[C@@]2(C)CC/C=C(\C)CC1 | 54.8 µM |  | > 100 µM | > 100 µM | > 100 µM | 44 µM | > 100 µM | > 100 µM |  | 26.9 µM |  | 38 µM | > 100 µM | > 100 µM | > 100 µM | 21.1 µM | > 100 µM | > 100 µM |  | > 100 µM
CC(=O)O[C@H]1CC[C@@]2(C)C(=CC[C@H]3C(CC#N)[C@@](C)(C#N)CCC32)C1 (stereo partly drawn) | > 100 µM | > 100 µM | > 100 µM |  | > 100 µM | > 100 µM | > 100 µM | > 100 µM | > 100 µM |  |  |  | > 100 µM |  |  |  |  |  |  | 
CC(=O)NNc1ncc(C(=O)/C=C/c2ccccc2C)s1 | > 100 µM | > 100 µM | > 100 µM | > 100 µM | > 100 µM | > 100 µM | > 100 µM | > 100 µM | > 100 µM |  |  |  |  |  |  |  |  |  |  | 
CCCCSC1CCSc2c1ccc1ccccc21 (stereo not drawn) |  |  | > 100 µM |  | > 100 µM | > 100 µM | > 100 µM | > 100 µM |  |  |  |  | > 100 µM |  |  |  |  |  |  | 
C=CCN=C1NC(=O)C(CC(=O)Nc2cccc(Cl)c2)S1 (stereo not drawn) | > 100 µM | > 100 µM | > 100 µM | > 100 µM | > 100 µM | > 100 µM | > 100 µM | > 100 µM | > 100 µM |  |  |  |  |  |  |  |  |  |  | 
CC(=O)N(N=O)c1ccc(N(N=O)C(C)=O)cc1 | > 100 µM |  | > 100 µM | > 100 µM | > 100 µM | > 100 µM | > 100 µM | > 100 µM | > 100 µM |  |  |  | > 100 µM |  |  |  |  |  |  | 
Cn1nc(-c2ccccc2)c2c(/C=C/c3ccc(F)cc3)onc2c1=O | > 100 µM | > 100 µM | > 100 µM | 51.1 µM | > 100 µM | > 100 µM |  |  |  |  |  |  | > 100 µM |  |  |  |  |  |  | 
CO/S(=N/S(=O)(=O)c1ccccc1)c1ccccc1[N+](=O)[O-] (stereo not drawn) | > 100 µM | > 100 µM | > 100 µM | > 100 µM | > 100 µM | > 100 µM | > 100 µM | > 100 µM | > 100 µM |  |  |  |  |  |  |  |  |  |  | 
CCCCCCCCCCNC(=S)OC | > 100 µM | > 100 µM | > 100 µM | 58.7 µM | > 100 µM | 36.7 µM | > 100 µM |  | > 100 µM |  |  |  | > 100 µM |  |  |  |  |  |  | 
C=C1C2CC(OC(C)=O)C3(C)C(c4ccoc4)OC(=O)[C@@H](O)[C@]13OC1C[C@H](OC(C)=O)C(C)(C)[C@H](C(O)C(=O)OC)[C@]12C (stereo partly drawn) | > 100 µM | > 100 µM | > 100 µM |  | > 100 µM | > 100 µM | > 100 µM | > 100 µM | > 100 µM |  |  |  | > 100 µM |  |  |  |  |  |  | 
Cc1cc(C)c([I+]c2c(C)cc(C)cc2C)c(C)c1 | 2.24 µM |  |  | 1.45 µM | 1.09 µM |  | 2.18 µM | 1.61 µM | 1.39 µM | 0.365 µM |  | 0.348 µM | 1.35 µM |  | 0.351 µM |  | 0.591 µM | 0.482 µM | 0.342 µM | 0.286 µM
O=CC1=CCCN(CCc2c[nH]c3ccccc23)C1 | > 393 µM | 202 µM | 176 µM | 139 µM | 206 µM | > 393 µM | 112 µM | 119 µM |  |  |  |  | 80.4 µM |  |  |  |  |  |  | 
